Source: publication PMC7392148 (Bioorganic & medicinal chemistry, 2020)
Each block holds one compound with its values, some of them ahead of it.

What was measured:
CX3CR1 = biological target: T1, CX3CR1 (Homo sapiens, UniProt P49238); assay: PathHunter β-arrestin antagonist assay; format: cell-based
T1 sequence (P49238 1-355): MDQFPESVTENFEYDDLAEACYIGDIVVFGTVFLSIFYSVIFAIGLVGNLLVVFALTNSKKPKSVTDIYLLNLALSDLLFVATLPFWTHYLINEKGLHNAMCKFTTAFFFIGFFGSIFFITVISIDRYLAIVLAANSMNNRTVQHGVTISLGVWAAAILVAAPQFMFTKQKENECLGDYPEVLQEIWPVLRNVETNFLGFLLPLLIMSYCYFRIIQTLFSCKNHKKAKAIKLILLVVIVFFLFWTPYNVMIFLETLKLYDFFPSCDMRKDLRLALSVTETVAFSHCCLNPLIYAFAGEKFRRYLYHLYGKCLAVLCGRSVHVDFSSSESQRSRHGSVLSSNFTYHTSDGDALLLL

CXCR4 = CXCR4 (Homo sapiens, UniProt P61073); assay: PathHunter β-arrestin antagonist assay; format: cell-based
chemokine receptor CCR8 = chemokine receptor CCR8 (Homo sapiens, UniProt P51685); assay: PathHunter β-arrestin antagonist assay; format: cell-based
chemokine receptor CCR3 = biological target: T2, chemokine receptor CCR3 (Homo sapiens, UniProt P51677); assay: PathHunter β-arrestin antagonist assay; format: cell-based
T2 sequence (P51677 1-355): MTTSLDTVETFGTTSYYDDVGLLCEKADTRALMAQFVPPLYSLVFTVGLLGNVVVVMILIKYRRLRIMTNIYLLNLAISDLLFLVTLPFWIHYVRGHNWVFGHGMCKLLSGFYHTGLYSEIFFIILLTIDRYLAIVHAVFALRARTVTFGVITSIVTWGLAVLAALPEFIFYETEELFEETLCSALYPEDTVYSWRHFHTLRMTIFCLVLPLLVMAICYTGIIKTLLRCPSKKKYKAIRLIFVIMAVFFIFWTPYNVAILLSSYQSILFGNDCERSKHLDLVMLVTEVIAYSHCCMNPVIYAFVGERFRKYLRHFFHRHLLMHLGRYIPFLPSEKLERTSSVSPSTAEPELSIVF

[1] = biological target: T3, 5-hydroxytryptamine (serotonin) receptor (HTR2C) (Homo sapiens, UniProt P28335); assay: PathHunter β-arrestin antagonist assay; format: cell-based
T3 sequence (P28335 33-458): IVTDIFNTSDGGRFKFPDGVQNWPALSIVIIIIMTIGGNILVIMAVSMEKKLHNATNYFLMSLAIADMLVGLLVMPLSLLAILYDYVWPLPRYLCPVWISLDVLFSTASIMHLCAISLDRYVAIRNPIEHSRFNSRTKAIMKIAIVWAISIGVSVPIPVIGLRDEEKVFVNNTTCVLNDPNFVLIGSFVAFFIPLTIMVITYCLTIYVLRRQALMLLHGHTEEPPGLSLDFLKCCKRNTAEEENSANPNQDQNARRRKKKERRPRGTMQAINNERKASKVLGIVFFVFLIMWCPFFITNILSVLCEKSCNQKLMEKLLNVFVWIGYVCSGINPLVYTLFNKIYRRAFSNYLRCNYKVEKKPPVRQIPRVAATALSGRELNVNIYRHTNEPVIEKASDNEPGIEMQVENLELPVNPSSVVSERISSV

panel of 168 GPCRs = assay: PathHunter β-arrestin cell-based assays, antagonist primary screen; details: for antagonistic activity in the primary screen: 20 μM, significant = ≥80% inhibition; for hit rate: from the 168 GPCRs tested; for number of GPCRs antagonized at ≥80% inhibition: primary screen at 20 μM
[2] = biological target: T4, follicle-stimulating hormone receptor (FSHR) (Homo sapiens, UniProt P23945); assay: PathHunter β-arrestin antagonist assay; format: cell-based
T4 sequence (P23945 18-695): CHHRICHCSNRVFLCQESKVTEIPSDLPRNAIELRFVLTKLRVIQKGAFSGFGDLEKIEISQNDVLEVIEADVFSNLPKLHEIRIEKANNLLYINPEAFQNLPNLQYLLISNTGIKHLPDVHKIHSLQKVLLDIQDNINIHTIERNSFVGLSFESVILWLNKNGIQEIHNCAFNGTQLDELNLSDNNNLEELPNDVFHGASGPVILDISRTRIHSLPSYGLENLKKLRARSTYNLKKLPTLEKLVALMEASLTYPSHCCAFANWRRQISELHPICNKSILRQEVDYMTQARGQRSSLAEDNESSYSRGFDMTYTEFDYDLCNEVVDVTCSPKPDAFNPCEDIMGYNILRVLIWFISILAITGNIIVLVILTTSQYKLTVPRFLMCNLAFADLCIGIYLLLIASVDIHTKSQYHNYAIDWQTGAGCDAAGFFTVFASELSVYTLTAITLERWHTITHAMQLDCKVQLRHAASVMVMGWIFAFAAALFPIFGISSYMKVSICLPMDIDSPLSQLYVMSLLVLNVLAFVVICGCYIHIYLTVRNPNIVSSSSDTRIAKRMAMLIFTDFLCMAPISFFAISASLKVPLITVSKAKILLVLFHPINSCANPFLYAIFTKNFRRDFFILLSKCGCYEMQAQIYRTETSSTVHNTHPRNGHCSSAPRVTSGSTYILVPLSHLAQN

[3] = biological target: T5, prolactin releasing hormone receptor (PRLHR) (Homo sapiens, UniProt P49683); assay: PathHunter β-arrestin antagonist assay; format: cell-based
T5 sequence (P49683 1-370): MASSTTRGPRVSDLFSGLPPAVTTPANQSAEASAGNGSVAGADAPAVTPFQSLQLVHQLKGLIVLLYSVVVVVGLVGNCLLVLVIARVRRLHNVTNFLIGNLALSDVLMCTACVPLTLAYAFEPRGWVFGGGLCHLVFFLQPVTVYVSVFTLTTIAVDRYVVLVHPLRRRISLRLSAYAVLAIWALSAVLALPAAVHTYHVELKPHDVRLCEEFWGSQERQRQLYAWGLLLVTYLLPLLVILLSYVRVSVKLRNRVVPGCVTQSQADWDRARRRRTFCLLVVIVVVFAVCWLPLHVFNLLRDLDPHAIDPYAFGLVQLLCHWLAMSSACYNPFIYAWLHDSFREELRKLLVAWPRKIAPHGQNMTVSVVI

[4] = biological target: T6, neuropeptide S receptor 1 (NPSR1B) (Homo sapiens, UniProt Q6W5P4); assay: PathHunter β-arrestin antagonist assay; format: cell-based
T6 sequence (Q6W5P4 1-377 isoform Q6W5P4-4): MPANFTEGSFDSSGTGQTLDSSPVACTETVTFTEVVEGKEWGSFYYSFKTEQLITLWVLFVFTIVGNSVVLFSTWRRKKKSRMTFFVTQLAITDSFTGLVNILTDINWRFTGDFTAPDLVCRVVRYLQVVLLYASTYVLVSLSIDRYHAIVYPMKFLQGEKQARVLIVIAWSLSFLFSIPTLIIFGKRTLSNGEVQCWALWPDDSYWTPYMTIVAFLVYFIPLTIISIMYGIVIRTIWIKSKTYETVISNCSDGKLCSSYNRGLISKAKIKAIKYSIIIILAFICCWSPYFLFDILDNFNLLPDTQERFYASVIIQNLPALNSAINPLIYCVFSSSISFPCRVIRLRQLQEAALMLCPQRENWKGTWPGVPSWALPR

ADRA2A = assay: PathHunter β-arrestin antagonist assay; format: cell-based; details: primary screen at 20 μM
[5] = test system: dopamine D2b receptor (DRD2L); assay: PathHunter β-arrestin antagonist assay; format: cell-based; details: primary screen at 20 μM
AVPR1A = assay: PathHunter β-arrestin antagonist assay; format: cell-based; details: primary screen at 20 μM
[6] = test system: hydroxytryptamine receptor (HTR1B); assay: PathHunter β-arrestin antagonist assay; format: cell-based; details: primary screen at 20 μM
AVPR1B = assay: PathHunter β-arrestin antagonist assay; format: cell-based; details: primary screen at 20 μM
AVPR2 = AVPR2 (Homo sapiens, UniProt P30518); assay: PathHunter β-arrestin antagonist assay; format: cell-based
oxytocin receptor (OXTR) = biological target: T7, oxytocin receptor (OXTR) (Homo sapiens, UniProt P30559); assay: PathHunter β-arrestin antagonist assay; format: cell-based
T7 sequence (P30559 1-389): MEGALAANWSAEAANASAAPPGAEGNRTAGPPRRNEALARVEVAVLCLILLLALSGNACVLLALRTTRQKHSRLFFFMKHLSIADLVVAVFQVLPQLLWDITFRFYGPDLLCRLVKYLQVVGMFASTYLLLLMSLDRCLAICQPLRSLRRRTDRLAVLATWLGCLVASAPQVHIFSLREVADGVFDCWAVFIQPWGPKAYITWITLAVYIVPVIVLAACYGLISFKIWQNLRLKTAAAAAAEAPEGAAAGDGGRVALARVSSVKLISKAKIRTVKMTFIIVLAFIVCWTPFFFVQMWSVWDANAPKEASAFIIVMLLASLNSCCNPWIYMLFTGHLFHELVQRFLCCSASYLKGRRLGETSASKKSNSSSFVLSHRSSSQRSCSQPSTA

CXCR4, sequence (P61073 whole entry): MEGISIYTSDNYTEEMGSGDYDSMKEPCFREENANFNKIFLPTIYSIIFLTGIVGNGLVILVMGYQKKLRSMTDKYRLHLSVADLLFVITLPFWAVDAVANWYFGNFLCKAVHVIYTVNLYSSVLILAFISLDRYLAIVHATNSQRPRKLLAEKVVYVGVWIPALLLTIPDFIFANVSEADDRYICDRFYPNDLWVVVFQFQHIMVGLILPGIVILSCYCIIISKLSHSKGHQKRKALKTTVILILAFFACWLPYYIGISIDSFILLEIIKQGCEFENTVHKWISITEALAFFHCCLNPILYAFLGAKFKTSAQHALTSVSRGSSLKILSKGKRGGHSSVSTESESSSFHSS
chemokine receptor CCR8, sequence (P51685 whole entry): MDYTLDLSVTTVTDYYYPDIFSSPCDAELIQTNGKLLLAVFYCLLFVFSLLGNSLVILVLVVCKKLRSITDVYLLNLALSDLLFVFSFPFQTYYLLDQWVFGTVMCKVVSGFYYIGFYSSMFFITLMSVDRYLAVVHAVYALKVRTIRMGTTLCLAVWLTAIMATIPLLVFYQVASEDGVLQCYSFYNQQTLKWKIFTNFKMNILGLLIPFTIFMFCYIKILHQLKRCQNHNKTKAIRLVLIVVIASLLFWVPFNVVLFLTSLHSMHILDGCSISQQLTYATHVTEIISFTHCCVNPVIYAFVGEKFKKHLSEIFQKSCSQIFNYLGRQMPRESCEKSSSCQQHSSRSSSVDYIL
AVPR2, sequence (P30518 whole entry): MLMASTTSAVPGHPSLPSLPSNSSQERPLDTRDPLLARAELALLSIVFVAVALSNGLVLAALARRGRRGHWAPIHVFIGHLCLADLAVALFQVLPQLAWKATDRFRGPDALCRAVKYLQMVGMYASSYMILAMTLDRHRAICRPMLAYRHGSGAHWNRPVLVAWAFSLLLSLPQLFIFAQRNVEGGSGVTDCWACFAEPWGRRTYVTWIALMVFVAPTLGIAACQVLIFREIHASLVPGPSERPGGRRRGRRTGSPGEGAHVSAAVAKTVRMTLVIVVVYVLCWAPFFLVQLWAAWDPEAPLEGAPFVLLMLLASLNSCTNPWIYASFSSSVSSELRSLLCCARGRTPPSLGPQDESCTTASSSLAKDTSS

inhibition at 20 µM (CX3CR1): ≥ 80%
inhibition at 20 µM (CXCR4): ≥ 80%
inhibition at 20 µM (chemokine receptor CCR8): ≥ 80%
inhibition at 20 µM (chemokine receptor CCR3): ≥ 80%
inhibition at 20 µM [1]: ≥ 80%
Compound: COC(=O)[C@@H]1[C@H]2C[C@@H](c3[nH]c4ccccc4c3CCn3cc(-c4cccc(Cl)c4)nn3)N(C#N)C[C@@H]2CC[C@@H]1O [Y1f]
antagonistic activity in the primary screen (panel of 168 GPCRs): significant inhibitory activities
hit rate (panel of 168 GPCRs): 3.0%
number of GPCRs antagonized at ≥80% inhibition (panel of 168 GPCRs): five

Compound: COC(=O)[C@@H]1[C@H]2C[C@@H]([C@@]3(CCn4cc(CCCCO)nn4)C(=O)Nc4ccccc43)N(C#N)C[C@@H]2CC[C@@H]1O [Y2e]
antagonistic activity in the primary screen (panel of 168 GPCRs): inactive

Compound: COC(=O)[C@@H]1[C@H]2C[C@@H]3N(CC[C@@]34C(=O)N(c3cncc(OC)n3)c3ccccc34)C[C@@H]2CC[C@@H]1O [Y3h]
antagonistic activity in the primary screen (panel of 168 GPCRs): inactive

Compound: COC(=O)[C@@H]1[C@H]2C[C@@H]3OCc4ccccc4-n4c3c(c3ccccc34)CCN(C#N)C[C@@H]2CC[C@@H]1O [Y4a]
antagonistic activity in the primary screen (panel of 168 GPCRs): inactive

Compound: COC(=O)[C@@H]1[C@H]2C[C@H]3OCc4ccccc4-n4c3c(c3ccccc34)CCN(C#N)C[C@@H]2CC[C@@H]1O [Y5a]
antagonistic activity in the primary screen (panel of 168 GPCRs): inactive

inhibition at 20 µM [2]: ≥ 80%
inhibition at 20 µM [3]: ≥ 80%
inhibition at 20 µM [4]: ≥ 80%
Compound: COC(=O)[C@@H]1[C@H]2C[C@@H](OCc3ccc(Br)cc3)c3[nH]c4ccccc4c3CCN(C#N)C[C@@H]2CC[C@@H]1O [Y6p]
antagonistic activity in the primary screen (panel of 168 GPCRs): significant inhibitory activities
hit rate (panel of 168 GPCRs): 2.4%
number of GPCRs antagonized at ≥80% inhibition (panel of 168 GPCRs): four

Compound: COC(=O)[C@@H]1[C@H]2C[C@@H]3N(CC[C@@]34C(=O)N(Cc3cccc(OC)c3)c3ccccc34)C[C@@H]2CC[C@@H]1OCc1cccc(OC)c1 [Y7g]
antagonistic activity in the GPCR screen (ADRA2A): not inhibited
antagonistic activity in the GPCR screen [5]: not inhibited
antagonistic activity in the GPCR screen (AVPR1A): inhibited
antagonistic activity in the GPCR screen [6]: not inhibited
antagonistic activity in the primary screen (panel of 168 GPCRs): significant inhibitory activities
hit rate (panel of 168 GPCRs): 2.4%
antagonistic activity in the GPCR screen (AVPR1B): inhibited

Compound: COC(=O)[C@@H]1[C@H]2C[C@H]3c4[nH]c5ccccc5c4CCN3C[C@@H]2CC[C@@H]1O [yohimbine, reference compound]
antagonistic activity in the GPCR screen [5]: inhibited
antagonistic activity in the GPCR screen [6]: inhibited
inhibition at 20 µM (AVPR2): ≤ 5%
inhibition at 20 µM (oxytocin receptor (OXTR)): ≤ 5%
